Patent US20160067211A1, “PHARMACEUTICAL COMPOSITION” (Eberhard Karls Universitaet Tuebingen Medizinische Fakultaet, priority 2013, published 2016)

Experiments:
[1] = system: SK-MEL-28 melanoma cells; assay: FACS cell cycle analysis (PI), SK-MEL-28; assay type: cell-based, human; details: SK-MEL-28, 100 μM, 48 hours
Protocol: (§1) (A) Cell cycle FACS analyses of PI stained BLM and SK-MEL-28 melanoma cells. 100 μM of 8-PN-induced a G2 arrest in both cells. (B) FACS analyses of BLM and SK-MEL-28 melanoma cells treated with 100 μM 6-PN or 8-PN and stained for annexin V/PI; staurosporin was used as control for apoptosis induction and DMSO as vehicle control. […] (C) BLM and SK-MEL-28 melanoma cells were treated with 100 μM of PNs; TSA, SAHA and EMSO were used as controls.
To further analyze the possibility of apoptosis induction, an extensive apoptosis assay was performed on SK-MEL-28 melanoma cells 4 hours after treatment with 100 μM 6-PN or 8-PN (FIG. 9). […] This was verified by FACS cell cycle analyses to screen for a possible increase of the sub-G1 fraction of cells (apoptotic cells) or for the induction of a G2 arrest (inhibition of proliferation). […] To further differentiate between the induction of apoptosis and/or necrosis an PI/Annexin V staining of SK-MEL-28 and BLM cells was performed 4 hours and 24 hours after the treatment with 6-PN or 8-PN; 10 μM staurosporin (6 hours treatment) was used as positive control for the induction of apoptosis; DMSO treatment was used as vehicle control. The cells were then analyzed by FACS.

[2] = system: HT-29 colon cancer cells; assay: MUH proliferation assay, HT-29; assay type: cell-based; details: rising concentrations 0.1 μM to 100 μM, 48 hours
Protocol: FIG. 6: 6-PN and 8-PN inhibit the growth of MCF-7 and HT-29. (A, B) MUH proliferation assay of HT-29 colon cancer cells and MCF-7 breast cancel cells treated with increasing concentrations of 6-PN and 8-PN (0.1 μM to 100 μM) for 48 hours. Shown are the mean±S.A.; the experiments were performed in quadruplicates.
The cells were seeded in triplicates in 96-well plates at a density of 2,500 cells per well in 50 μl medium (5×10^4 cells per milliliter). After 24 hours, the medium was replaced by medium containing 6-PN, 8-PN (dissolved in DMSO), TSA (dissolved in EtOH) or SAHA (dissolved in DMSO) at the concentrations to be tested with or without the addition of the necrosis inhibitor IM-54 at 5 μM (Calbiochem, Darmstadt, Germany). Cells treated with culture medium without or with DMSO served as controls. The assay was started following an incubation of 24 hours. The medium was discarded, each well was washed two times with PBS (without Ca^++ and Mg^++) and 100 μl of a solution containing […] of 4-methyl umbellipheryl heptanoate per ml PBS was added. Plates were incubated at 37° C. for 1 hour and measured in a Fluoroskan II (Lab Systems, Helsinki, Finland) with a […]. The intensity of fluorescence indicates the number of viable cells in the wells. […]

[3] = system: BLM melanoma cells; assay: Real time cell monitoring assay (xCELLigence), BLM; assay type: cell-based, human; details: BLM, 20, 50 and 100 μM, 104 hours, vs. control
Protocol: FIG. 5: real time cell monitoring of BLM and SK-MEL-28 melanoma cells treated with 6-PN and 8-PN. (A) BML and SK-MEL-28 cells were treated 24 hours after seeding with different concentrations of 6-PN and 8-PN (20 μM, 50 μM and 100 μM) over a 104 hour time period. The cellular impedance was measured over the entire observation time using the xCELLigence™ SP system and is depicted by the cell index (CI). All CI-values were normalized shortly before the treatment started. […] As a positive control, Triton X-100 0.1% was used to induce cell death. Shown are the mean±SD of three independent experiments, each performed in triplicates (B, C). […]
The human melanoma cell lines BLM and SK-MEL-28 (2.5×10^3 cells/well) were seeded in 96 well plates. The cells were treated after 24 hours with different concentrations of 6-PN or 8-PN (20 μM, 50 μM and 100 μM) and monitored by measurements of electrical impedance in 15 minutes intervals for an overall time span of in total 104 hours using the xCELLigencer® SP Systems (Roche Applied Science). The cell index values were calculated using the RTCA software (1.0.0.0805). […]
The human metastatic melanoma cell lines BLM and SK-MEL-28 were treated once with rising concentrations of 6-PN or 8-PN (20 μM, 50 μM and 100 μM) and monitored continuously for an overall time span of 104 hours using a real time monitoring assay (FIG. 5A). […]

[4] = system: angiogenesis; details: chorioallantois membrane assays in vivo; cited from earlier work
[5] = system: LC3 in BLM melanoma cells; assay: Western blot LC3 (autophagy), BLM; assay type: cell-based, human; details: 100 μM, after 12-24 hours
Protocol: as §1
The following antibodies were used: Anti-Vinculin and Anti-Actin (1:5000, Sigma-Aldrich), Anti-Acetyl-Histon H3 (1:5000, Millipore, Billerica, USA), Anti-Caspase-3 (1:1000), Anti-AKT, Anti-pAKT, Anti-ERK, Anti-pERK, […], Anti-p70S6 Kinase, and Anti-pS6 protein (1:1000), all from Cell Signaling, Frankfurt, Germany), Anti-LC3 (1:5000, Sigma-Aldrich).
Since it has been speculated that the formation of intracytoplasmic vacuoles in pancreatic or breast cancer cells by 6-PN and 8-PN observed in pervious studies might represent an induction of autophagy, this issue was further investigated on a molecular level. BLM and SK-MEL-28 melanoma cells were treated with 100 μM of 6-PN, 8-PN, SAHA or TSA (and with DMSO as control), and the treated cells were lysed for protein extraction after 1 hour, 2 hours, 4 hours, 12 hours and 24 hours. […]

SMILES: CC(C)=CCc1c(O)cc(O)c2c1OC(c1ccc(O)cc1)CC2=O (stereo not drawn) [8-PN, 5,7-Dihydroxy-2-(4-hydroxy-phenyl)-8-(3-methyl-but-2-enyl)-chroman-4-one]
- sub-G1 fraction (apoptotic cells) [1]: remained unaffected
- cells in the G2 phase ([1]; DMSO control 20.1%): 49.8%
- cell proliferation [2]: severe reduction
- normalized cell index (CI) [3]: descended over time
- angiogenesis [4]: inhibits the angiogenesis
- shift from LC3-I to LC3-II (autophagy) [5]: clearly induced the shift
